Data: article PMC4076210, “Discovery of Novel AKT Inhibitors with Enhanced Anti-Tumor Effects in Combination with the MEK Inhibitor” (PLoS ONE, 2014)
Like-named read-outs stand apart in the source and are kept apart here.

Columns and labels:
Assay in all cases: Kinase panel
Type in all cases: biochemical
MSK2(h) = biological target: T1, MSK2(h) (Homo sapiens, UniProt O75676)
T1 construct: purchased Millipore KinaseProfiler

Fms(h) = biological target: T2, Fms(h) (Homo sapiens, UniProt P07333)
T2 construct: purchased Millipore KinaseProfiler
T2 sequence (P07333 20-972): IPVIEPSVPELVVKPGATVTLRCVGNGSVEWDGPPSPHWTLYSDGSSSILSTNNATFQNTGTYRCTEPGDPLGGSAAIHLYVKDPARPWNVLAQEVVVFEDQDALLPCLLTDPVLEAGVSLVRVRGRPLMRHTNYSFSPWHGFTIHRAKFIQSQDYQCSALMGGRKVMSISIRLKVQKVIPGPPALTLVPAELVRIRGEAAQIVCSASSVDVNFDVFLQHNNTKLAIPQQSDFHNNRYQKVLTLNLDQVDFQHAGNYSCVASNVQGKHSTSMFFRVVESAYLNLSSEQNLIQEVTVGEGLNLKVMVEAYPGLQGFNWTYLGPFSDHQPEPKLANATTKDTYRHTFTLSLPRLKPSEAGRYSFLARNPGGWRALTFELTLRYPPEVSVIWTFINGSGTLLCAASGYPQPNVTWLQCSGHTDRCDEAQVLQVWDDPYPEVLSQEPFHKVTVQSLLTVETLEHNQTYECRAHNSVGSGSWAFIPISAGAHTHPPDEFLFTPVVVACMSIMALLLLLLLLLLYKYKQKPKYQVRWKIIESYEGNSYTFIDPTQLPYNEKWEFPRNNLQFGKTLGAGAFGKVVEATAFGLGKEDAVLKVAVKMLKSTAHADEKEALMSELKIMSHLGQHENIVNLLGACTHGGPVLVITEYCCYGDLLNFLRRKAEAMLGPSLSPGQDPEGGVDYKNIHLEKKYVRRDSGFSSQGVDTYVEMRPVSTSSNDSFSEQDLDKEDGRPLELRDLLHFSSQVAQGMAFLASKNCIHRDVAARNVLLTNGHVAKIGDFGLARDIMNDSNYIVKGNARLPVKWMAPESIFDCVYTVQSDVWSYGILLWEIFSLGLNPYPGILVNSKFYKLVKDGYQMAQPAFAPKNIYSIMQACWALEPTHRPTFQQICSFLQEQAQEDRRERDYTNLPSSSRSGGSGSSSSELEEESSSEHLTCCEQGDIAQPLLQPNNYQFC

EGFR(L861Q)(h) = biological target: T3, EGFR(L861Q)(h) (Homo sapiens, UniProt P00533, L861Q)
T3 construct: purchased Millipore KinaseProfiler
T3 sequence (P00533 25-1210 L861Q): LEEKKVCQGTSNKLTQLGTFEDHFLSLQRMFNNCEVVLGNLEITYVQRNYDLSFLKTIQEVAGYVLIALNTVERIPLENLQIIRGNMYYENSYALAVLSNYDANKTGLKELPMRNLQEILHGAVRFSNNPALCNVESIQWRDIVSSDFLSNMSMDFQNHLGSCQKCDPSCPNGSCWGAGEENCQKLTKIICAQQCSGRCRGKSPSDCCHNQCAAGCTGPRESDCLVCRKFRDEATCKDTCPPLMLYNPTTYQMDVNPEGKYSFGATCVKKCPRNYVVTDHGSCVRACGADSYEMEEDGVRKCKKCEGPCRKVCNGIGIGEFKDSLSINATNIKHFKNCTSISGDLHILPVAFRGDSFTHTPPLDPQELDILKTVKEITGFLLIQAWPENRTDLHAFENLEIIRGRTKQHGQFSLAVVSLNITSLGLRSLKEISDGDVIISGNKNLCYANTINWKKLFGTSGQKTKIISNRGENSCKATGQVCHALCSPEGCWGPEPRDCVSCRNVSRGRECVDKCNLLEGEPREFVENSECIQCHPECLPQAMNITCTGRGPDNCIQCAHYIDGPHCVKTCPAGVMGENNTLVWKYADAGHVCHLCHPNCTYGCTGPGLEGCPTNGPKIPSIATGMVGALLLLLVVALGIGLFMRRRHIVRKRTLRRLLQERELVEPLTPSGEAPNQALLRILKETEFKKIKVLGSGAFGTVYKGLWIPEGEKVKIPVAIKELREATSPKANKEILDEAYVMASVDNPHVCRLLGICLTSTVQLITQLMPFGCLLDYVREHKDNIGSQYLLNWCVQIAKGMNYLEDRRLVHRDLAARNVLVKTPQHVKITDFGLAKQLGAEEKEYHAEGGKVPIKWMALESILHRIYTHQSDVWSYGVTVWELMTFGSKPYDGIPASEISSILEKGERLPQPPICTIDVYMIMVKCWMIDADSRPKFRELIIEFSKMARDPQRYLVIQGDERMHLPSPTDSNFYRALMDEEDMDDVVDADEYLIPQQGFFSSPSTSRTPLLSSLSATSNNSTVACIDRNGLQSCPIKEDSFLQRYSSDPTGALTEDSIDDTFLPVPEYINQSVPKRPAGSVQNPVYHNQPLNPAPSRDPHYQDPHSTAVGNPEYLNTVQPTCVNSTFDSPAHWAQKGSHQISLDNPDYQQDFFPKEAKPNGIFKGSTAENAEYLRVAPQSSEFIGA

Ros(h) = biological target: T4, Ros(h) (Homo sapiens, UniProt P08922)
T4 construct: purchased Millipore KinaseProfiler
T4 sequence (P08922 28-2347): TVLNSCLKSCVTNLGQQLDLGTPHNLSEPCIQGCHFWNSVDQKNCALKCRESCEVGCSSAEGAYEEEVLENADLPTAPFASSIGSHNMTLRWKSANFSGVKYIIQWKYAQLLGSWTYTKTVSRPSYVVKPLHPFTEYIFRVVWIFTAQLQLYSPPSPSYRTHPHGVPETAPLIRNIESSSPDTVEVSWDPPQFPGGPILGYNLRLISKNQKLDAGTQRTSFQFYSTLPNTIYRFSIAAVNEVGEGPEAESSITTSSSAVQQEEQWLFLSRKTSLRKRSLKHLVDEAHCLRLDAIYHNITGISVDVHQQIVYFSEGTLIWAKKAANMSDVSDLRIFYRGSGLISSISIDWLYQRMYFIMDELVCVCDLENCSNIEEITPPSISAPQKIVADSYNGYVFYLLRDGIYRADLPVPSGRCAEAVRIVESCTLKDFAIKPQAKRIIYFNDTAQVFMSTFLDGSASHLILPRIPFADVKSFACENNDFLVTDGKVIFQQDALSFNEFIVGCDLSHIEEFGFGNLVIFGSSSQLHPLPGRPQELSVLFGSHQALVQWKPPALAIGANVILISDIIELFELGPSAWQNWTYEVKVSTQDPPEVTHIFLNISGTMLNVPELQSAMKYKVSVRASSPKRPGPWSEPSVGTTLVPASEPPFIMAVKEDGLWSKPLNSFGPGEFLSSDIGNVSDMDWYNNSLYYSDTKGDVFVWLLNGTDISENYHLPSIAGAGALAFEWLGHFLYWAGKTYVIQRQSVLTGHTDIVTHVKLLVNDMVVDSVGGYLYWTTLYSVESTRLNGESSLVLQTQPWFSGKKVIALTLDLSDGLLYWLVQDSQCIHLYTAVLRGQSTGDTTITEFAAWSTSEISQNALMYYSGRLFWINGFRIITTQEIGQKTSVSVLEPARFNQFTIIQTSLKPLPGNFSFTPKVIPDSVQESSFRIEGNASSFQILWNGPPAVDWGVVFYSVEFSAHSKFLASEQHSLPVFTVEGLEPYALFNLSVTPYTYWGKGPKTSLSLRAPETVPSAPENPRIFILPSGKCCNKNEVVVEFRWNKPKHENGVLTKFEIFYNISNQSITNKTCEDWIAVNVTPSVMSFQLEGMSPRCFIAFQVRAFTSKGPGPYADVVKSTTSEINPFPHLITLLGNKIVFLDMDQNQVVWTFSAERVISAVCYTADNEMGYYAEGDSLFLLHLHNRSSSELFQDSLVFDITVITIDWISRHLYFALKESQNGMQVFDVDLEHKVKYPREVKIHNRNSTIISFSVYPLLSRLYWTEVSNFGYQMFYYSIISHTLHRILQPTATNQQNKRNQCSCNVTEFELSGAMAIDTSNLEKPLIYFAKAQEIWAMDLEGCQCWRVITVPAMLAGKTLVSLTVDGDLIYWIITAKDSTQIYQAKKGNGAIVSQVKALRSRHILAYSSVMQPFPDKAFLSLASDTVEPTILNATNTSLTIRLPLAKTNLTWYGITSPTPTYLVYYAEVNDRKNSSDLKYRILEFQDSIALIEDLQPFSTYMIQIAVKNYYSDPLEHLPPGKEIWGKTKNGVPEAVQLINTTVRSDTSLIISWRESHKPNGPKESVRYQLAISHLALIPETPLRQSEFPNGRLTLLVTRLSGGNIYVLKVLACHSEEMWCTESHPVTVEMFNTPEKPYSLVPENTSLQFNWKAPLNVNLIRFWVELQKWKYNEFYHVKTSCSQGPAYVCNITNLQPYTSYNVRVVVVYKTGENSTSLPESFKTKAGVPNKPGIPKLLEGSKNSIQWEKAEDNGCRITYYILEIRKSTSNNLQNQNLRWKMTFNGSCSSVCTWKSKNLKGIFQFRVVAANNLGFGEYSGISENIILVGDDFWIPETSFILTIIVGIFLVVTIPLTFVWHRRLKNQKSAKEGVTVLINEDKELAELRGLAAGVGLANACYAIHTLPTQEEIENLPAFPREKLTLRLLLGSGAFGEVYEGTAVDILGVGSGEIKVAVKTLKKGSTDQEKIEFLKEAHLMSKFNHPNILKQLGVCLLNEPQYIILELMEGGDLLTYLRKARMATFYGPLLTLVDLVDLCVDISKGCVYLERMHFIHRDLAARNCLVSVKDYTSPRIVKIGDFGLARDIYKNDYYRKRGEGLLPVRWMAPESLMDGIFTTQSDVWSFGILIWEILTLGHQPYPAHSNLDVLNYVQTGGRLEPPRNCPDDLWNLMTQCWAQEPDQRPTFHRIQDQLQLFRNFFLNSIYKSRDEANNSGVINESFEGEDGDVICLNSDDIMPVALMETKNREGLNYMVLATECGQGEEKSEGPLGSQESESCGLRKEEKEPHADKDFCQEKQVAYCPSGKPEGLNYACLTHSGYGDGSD

PKD2(h) = biological target: T5, PKD2(h) (Homo sapiens, UniProt Q9BZL6)
T5 construct: purchased Millipore KinaseProfiler
T5 sequence (Q9BZL6 1-878): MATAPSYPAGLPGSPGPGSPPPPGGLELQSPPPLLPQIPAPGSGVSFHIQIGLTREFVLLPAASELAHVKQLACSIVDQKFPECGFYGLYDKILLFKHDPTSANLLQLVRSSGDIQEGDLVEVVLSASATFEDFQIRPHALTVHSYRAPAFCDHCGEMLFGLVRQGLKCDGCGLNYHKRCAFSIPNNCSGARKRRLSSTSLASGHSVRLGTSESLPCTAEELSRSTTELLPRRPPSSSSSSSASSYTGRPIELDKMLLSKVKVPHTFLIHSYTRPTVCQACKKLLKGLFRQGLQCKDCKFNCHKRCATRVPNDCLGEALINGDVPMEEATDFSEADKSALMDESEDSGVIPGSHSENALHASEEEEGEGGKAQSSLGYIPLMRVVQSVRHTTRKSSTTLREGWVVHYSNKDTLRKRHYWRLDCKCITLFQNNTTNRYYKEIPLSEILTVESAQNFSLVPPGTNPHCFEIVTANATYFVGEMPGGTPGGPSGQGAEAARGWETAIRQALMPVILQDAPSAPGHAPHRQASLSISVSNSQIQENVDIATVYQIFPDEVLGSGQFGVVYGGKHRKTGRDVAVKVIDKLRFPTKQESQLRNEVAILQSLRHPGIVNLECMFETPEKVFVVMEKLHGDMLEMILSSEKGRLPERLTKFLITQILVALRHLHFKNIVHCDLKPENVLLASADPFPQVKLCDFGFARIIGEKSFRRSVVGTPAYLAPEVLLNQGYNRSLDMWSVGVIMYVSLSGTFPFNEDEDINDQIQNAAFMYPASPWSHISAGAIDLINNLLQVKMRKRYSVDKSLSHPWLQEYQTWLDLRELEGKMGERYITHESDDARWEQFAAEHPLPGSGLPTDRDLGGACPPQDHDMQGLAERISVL

Abl (M351T)(h) = biological target: T6, Abl (M351T)(h) (Homo sapiens, UniProt P00519, M351T)
T6 construct: purchased Millipore KinaseProfiler

EphA8(h) = biological target: T7, EphA8(h) (Homo sapiens, UniProt P29322)
T7 construct: purchased Millipore KinaseProfiler
T7 sequence (P29322 28-1005): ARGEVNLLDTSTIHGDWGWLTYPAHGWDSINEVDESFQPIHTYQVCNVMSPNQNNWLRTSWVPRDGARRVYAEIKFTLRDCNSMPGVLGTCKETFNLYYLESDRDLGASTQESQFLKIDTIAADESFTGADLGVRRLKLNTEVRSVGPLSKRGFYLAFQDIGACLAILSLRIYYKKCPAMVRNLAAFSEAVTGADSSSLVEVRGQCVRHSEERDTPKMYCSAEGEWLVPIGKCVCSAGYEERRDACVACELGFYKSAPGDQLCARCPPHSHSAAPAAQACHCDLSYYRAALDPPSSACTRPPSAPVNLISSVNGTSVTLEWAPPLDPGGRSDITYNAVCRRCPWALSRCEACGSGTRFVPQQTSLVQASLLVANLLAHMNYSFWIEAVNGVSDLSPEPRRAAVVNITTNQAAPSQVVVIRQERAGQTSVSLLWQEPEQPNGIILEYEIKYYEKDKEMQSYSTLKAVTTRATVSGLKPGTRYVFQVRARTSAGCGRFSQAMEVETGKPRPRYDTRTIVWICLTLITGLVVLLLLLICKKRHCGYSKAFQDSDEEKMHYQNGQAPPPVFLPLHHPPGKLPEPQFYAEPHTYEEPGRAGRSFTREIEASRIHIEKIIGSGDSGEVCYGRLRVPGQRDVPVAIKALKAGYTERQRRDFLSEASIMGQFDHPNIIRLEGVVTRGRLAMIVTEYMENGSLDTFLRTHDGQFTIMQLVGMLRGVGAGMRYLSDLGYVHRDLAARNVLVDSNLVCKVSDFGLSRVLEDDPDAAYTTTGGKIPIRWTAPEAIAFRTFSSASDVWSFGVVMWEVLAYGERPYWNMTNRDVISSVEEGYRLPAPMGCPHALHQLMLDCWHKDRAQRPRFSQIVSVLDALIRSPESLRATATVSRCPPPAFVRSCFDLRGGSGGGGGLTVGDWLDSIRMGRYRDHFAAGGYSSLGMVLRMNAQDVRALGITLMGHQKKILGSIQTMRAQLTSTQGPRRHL

GSK3β(h) = biological target: T8, GSK3β(h) (Homo sapiens, UniProt P49841)
T8 construct: purchased Millipore KinaseProfiler
T8 sequence (P49841 whole entry): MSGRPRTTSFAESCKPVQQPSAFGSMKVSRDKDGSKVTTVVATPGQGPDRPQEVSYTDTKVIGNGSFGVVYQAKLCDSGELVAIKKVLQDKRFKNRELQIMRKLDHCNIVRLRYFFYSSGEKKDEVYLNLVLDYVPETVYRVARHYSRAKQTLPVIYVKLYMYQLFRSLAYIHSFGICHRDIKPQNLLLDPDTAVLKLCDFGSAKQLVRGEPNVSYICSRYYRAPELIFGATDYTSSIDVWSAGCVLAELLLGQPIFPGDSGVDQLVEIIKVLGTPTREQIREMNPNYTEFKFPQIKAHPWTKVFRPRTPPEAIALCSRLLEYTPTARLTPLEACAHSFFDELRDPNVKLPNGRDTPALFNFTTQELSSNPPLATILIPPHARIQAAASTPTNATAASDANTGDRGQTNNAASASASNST

cKit(h) = biological target: T9, cKit(h) (Homo sapiens, UniProt P10721)
T9 construct: purchased Millipore KinaseProfiler

EGFR(h) = biological target: T10, EGFR(h) (Homo sapiens, UniProt P00533)
T10 construct: purchased Millipore KinaseProfiler

Cn1ncc(Cl)c1-c1cc(C(=O)N[C@H](CN)Cc2cccc(F)c2)sc1Cl [GSK2110183]
inhibition at 0.5 µM (MSK2(h)): 85%
inhibition at 10 µM (MSK2(h)): 97%
inhibition at 0.5 µM (Fms(h)): -1%
inhibition at 10 µM (Fms(h)): 3%
inhibition at 0.5 µM (EGFR(L861Q)(h)): -4%
inhibition at 10 µM (EGFR(L861Q)(h)): 21%
inhibition at 0.5 µM (Ros(h)): -10%
inhibition at 10 µM (Ros(h)): -10%
inhibition at 0.5 µM (PKD2(h)): 11%
inhibition at 10 µM (PKD2(h)): 56%
inhibition at 0.5 µM (Abl (M351T)(h)): 0%
inhibition at 10 µM (Abl (M351T)(h)): 24%
inhibition at 0.5 µM (EphA8(h)): -19%
inhibition at 10 µM (EphA8(h)): -7%
inhibition at 0.5 µM (GSK3β(h)): 4%
inhibition at 10 µM (GSK3β(h)): 5%
inhibition at 0.5 µM (cKit(h)): 13%
inhibition at 10 µM (cKit(h)): 8%
inhibition at 0.5 µM (EGFR(h)): -4%
inhibition at 10 µM (EGFR(h)): 2%

Cn1ncc(Cl)c1-c1cc(C(=O)N[C@H](CN)Cc2ccc(F)c(F)c2)oc1Cl [GSK2141795]
inhibition at 0.5 µM (MSK2(h); 0.5 µM, read-out: % Inhibition): 98%
inhibition at 10 µM (MSK2(h); 10 µM, read-out: % Inhibition): 102%
inhibition at 0.5 µM (Fms(h); 0.5 µM, read-out: % Inhibition): -13%
inhibition at 10 µM (Fms(h); 10 µM, read-out: % Inhibition): 3%
inhibition at 0.5 µM (EGFR(L861Q)(h); 0.5 µM, read-out: % Inhibition): -13%
inhibition at 10 µM (EGFR(L861Q)(h); 10 µM, read-out: % Inhibition): 21%
inhibition at 0.5 µM (Ros(h); 0.5 µM, read-out: % Inhibition): 0%
inhibition at 10 µM (Ros(h); 10 µM, read-out: % Inhibition): 5%
inhibition at 0.5 µM (PKD2(h); 0.5 µM, read-out: % Inhibition): 17%
inhibition at 10 µM (PKD2(h); 10 µM, read-out: % Inhibition): 66%
inhibition at 0.5 µM (Abl (M351T)(h); 0.5 µM, read-out: % Inhibition): -7%
inhibition at 10 µM (Abl (M351T)(h); 10 µM, read-out: % Inhibition): -3%
inhibition at 0.5 µM (EphA8(h); 0.5 µM, read-out: % Inhibition): -4%
inhibition at 10 µM (EphA8(h); 10 µM, read-out: % Inhibition): 25%
inhibition at 0.5 µM (GSK3β(h); 0.5 µM, read-out: % Inhibition): -8%
inhibition at 10 µM (GSK3β(h); 10 µM, read-out: % Inhibition): -13%
inhibition at 0.5 µM (cKit(h); 0.5 µM, read-out: % Inhibition): 0%
inhibition at 10 µM (cKit(h); 10 µM, read-out: % Inhibition): -1%
inhibition at 0.5 µM (EGFR(h); 0.5 µM, read-out: % Inhibition): -42%
inhibition at 10 µM (EGFR(h); 10 µM, read-out: % Inhibition): -40%
